Results from patent EP4610269A1, “UROKINASE PLASMINOGEN ACTIVATOR SURFACE RECEPTOR (UPAR) LIGANDS FOR DIAGNOSTIC OR THERAPEUTIC USE” (3B Pharmaceuticals GmbH, priority 2024, dated 2025).
pIC50: −log10 of the molar value. Read-outs that look alike come from different tables or passages of the source. Where a SMILES comes first, the peptide text is derived from it. Bridges are numbered along the chain shown (N, C = ends). [ ]: non-standard residue; d: D form. The star is where a group is joined. DOTA = O=C(O)CN1CCN(CC(=O)O)CCN(CC(=O)*)CCN(CC(=O)O)CC1; Phe(4-CN) = N#Cc1ccc(C[C@H](N)C(=O)O)cc1; Pro(cis-4-F) = O=C(O)[C@@H]1C[C@H](F)CN1; Hyp = O=C(O)[C@@H]1C[C@@H](O)CN1; NMeF = CN[C@@H](Cc1ccccc1)C(=O)O; hArg = N=C(N)NCCCC[C@H](N)C(=O)O; Gly(cBu) = N[C@H](C(=O)O)C1CCC1; Pentanoyl(4-Me) = CC(C)CCC(=O)*; Cit = NC(=O)NCCC[C@H](N)C(=O)O; Butoxycarbonyl = CCCCOC(=O)*; Pen = CC(C)(S)[C@H](N)C(=O)O; Nva = CCC[C@H](N)C(=O)O; Pentanoyl = CCCCC(=O)*

Legend:
[1] = biological target: T1, human uPAR (uPAR-Fc) (Homo sapiens, UniProt Q03405); experiment: Surface plasmon resonance (SPR) assay, single cycle kinetics; format: binding; conditions: pKD category for uPAR SPR activity assay, uPAR-Fc on Protein A-Chip, 25°C, read-out: pKD CAT (converted)
T1 construct: comprising amino acids Leu23-Arg303 according to UniProt entry Q03405.1; purchased R&D Systems 10378-UK-100
Procedure: Surface plasmon resonance (SPR) is an optical technique used to measure molecular interactions in real time. SPR occur when plane-polarized light hits a metal film under total internal reflection conditions. SPR signal is directly dependent on the refractive index of the medium on the sensor chip. In an SPR experiment, one molecule (i.e. uPAR) is immobilized on a sensor chip and binding to a second molecule (i.e. test compounds) is measured under flow. The binding of the compound on the surface changes the refractive index. In responses the reflection angle changes as compounds bind and dissociate on the immobilized protein on the surface. This response is measured in resonance units (RU). The RUs are proportional to the number of molecules bound to the surface. […] Kinetic binding constants and equilibrium binding constants can be derived from the sensorgrams.
Surface plasmon resonance (SPR) studies were performed using a Biacore™ T200 or S200 SPR system (Cytiva, formerly GE Life Sciences) to assess binding of compounds to recombinant uPAR protein.
In this example recombinant protein comprising the extracellular domains of human uPAR (uPAR-Fc, R&D Systems, CAT 10378-UK-100, comprising amino acids Leu23-Arg303 according to UniProt entry Q03405.1 and Fc region of human IgG1 at the C-terminus) was immobilized on a Protein A-Chip (Cytiva, CAT 29127555) according to the supplier's instructions. uPAR-Fc was diluted in Running Buffer (10 mM HEPES, 150 mM NaCl, 50 µM EDTA, 0.1% DMSO, 0.05% Tween-20, pH 7.4) to a final concentration of 100 nM and then flushed over the Protein A-Chip to immobilized ~2000 RUs.
Stock solutions of test compounds were prepared by dissolving each compound in DMSO. DMSO stock solution were diluted 1: 1000 in Running Buffer without DMSO. Further sequential dilutions were made with Running Buffer containing 0.1% DMSO. SPR binding analyses were performed in Single Cycle Kinetic (SCK) mode at 25°C. Flow cell without immobilized uPAR-Fc served as reference flow cell. The chip was regenerated with 10 mM Glycine, pH 1,5 to remove the uPAR-Fc from the chip surface after each SCK run. After every three SCK measurements, a blank run with Running Buffer instead of test compound was included to correct for baseline drifts (double reference substraction method). Table 11: SPR protocol steps for SCK with uPAR-Fc immobilized on a Protein A-Chip.
For each test compound, SPR raw data sensorgrams were recorded using the Biacore™ T200 or S200 control software. Sensorgrams were processed and analyzed with the Biacore™ Insight Evaluation software. […] The reference subtracted sensorgram for each test compound was further corrected for baseline drift by subtracting the sensorgram of a reference subtracted blank run (Running Buffer only). The dissociation constant (KD) was calculated from the double reference subtracted sensorgrams using the 1:1 Langmuir binding model. The pKD value (negative decadic logarithm of dissociation constant) was calculated using Microsoft Excel.

[2] = biological target: T2, uPAR-expressing HEC-265 human endometrial adenocarcinoma cells (Homo sapiens, UniProt Q03405); experiment: Competitive FACS binding assay; conditions: pIC50 category of FACS binding
T2 construct: Cell surface uPAR-expressing HEC-265 human endometrial adenocarcinoma cells; host or cells: HEC-265
Procedure: In order to determine binding of compounds according to the present invention to uPAR-expressing cells, a competitive FACS binding assay was established.
Cell surface uPAR-expressing HEC-265 human endometrial adenocarcinoma cells (Japanese Collection of Research Bioresources, #JCRB1142) were cultured in MEM Eagle with stable glutamine (Pan Biotech, #P04-09500) including 15% fetal bovine serum (Pan Biotech, #P30-3306) and 100 U/ml penicillin and 100 µg/mL streptomycin (Pan Biotech, #P06-07100). Cells were detached with Cell Dissociation Buffer (Thermo Scientific, #13151014) and washed in FACS buffer (PBS (Pan Biotech, #P04-36500) including 1% BSA (SeraCare, #AP-4510-80). Cells were diluted in FACS buffer to a final concentration of 500.000 cells per ml and 200 µl of the cell suspension are transferred to a u-shaped non-binding 96-well plate (Greiner Bio-One, #650901).
For IC50 determination, cells were incubated with 10 nM Bio--Ttds--Ttds--Ttds--Ttds-D-Cha-FsrYLWS-NH2) in the presence of increasing concentrations of non-labeled test compounds at 4°C for 1 hour. Cells were washed twice in FACS buffer. An additional incubation step with 1 µg/mL APC-Streptavidin (Miltenyi; #130-106-791) in 50 µL FACS buffer for 30 minutes on ice was performed followed by two washes with FACS buffer. Cells were resuspended in 200 µl FACS buffer and analyzed in an Attune NxT flow cytometer. Median fluorescence intensities (APC channel) were calculated by Attune NxT software and plotted against peptide concentrations. Four parameter logistic (4PL) curve fitting and pIC50 calculations were performed using ActivityBase software.

T1 sequence (Q03405 23-303): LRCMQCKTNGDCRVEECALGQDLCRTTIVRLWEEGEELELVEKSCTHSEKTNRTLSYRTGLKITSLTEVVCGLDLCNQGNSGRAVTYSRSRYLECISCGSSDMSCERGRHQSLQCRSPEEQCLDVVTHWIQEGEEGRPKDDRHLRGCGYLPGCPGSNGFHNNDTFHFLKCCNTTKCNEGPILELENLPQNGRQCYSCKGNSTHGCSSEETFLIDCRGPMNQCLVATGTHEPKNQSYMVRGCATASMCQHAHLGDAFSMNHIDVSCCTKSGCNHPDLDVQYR
T2 sequence (Q03405 23-335): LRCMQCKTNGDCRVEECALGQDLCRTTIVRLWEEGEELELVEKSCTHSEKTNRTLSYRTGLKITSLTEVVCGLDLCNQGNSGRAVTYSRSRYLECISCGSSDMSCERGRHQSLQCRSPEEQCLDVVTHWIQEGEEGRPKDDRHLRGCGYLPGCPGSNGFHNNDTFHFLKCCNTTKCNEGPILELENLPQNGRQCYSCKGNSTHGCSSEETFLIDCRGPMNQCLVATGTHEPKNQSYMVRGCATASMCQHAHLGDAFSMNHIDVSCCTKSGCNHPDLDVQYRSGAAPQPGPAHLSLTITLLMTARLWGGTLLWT

SMILES	Kd ([1]; single cycle kinetics) [nM]	pIC50 [2]	Kd [1] [nM]
CCCCC(=O)N[C@H]1CSSC[C@@H](C(N)=O)NC(=O)[C@H](CCC)NC(=O)[C@H]([C@@H](C)CC)NC(=O)[C@@H]2C[C@@H](O)CN2C(=O)[C@@H]2CCCN2C(=O)[C@H](Cc2ccccc2)N(C)C(=O)[C@H](Cc2ccc(O)cc2)NC(=O)[C@H](CCCCNC(=O)CN2CCN(CC(=O)O)CCN(CC(=O)O)CCN(CC(=O)O)CC2)NC(=O)[C@H](CCCNC(N)=O)NC1=O [UPAR-398, Pent-[Cys-Cit-Lys(DOTA)-Tyr-Nmf-Pro-Hyp-Ile-Nva-Cys]-NH2] (Pentanoyl-C[Cit]K(DOTA)Y[NMeF]P[Hyp]I[Nva]C-NH2; disulfide 1-10)	> 100	≤ 6.90	–
CCCCC(=O)N[C@H]1CSSC[C@@H](C(N)=O)NC(=O)[C@H](C2CCC2)NC(=O)[C@H]([C@@H](C)CC)NC(=O)[C@@H]2C[C@@H](O)CN2C(=O)[C@@H]2CCCN2C(=O)[C@H](Cc2ccccc2)NC(=O)[C@H](Cc2ccc(O)cc2)NC(=O)[C@H](CCC(N)=O)NC(=O)[C@H](CCCNC(=N)N)NC1=O [UPAR-411, Pent-[Cys-Arg-Gln-Tyr-Phe-Pro-Hyp-Ile-Cbg-Cys]-NH2] (Pentanoyl-CRQYFP[Hyp]I[Gly(cBu)]C-NH2; disulfide 1-10)	< 1.58	≥ 8.00	–
CC[C@H](C)[C@@H]1NC(=O)[C@H](CCCCNC(=O)CN2CCN(CC(=O)O)CCN(CC(=O)O)CCN(CC(=O)O)CC2)NC(=O)[C@@H]2CCCN2C(=O)[C@H](Cc2ccccc2)NC(=O)[C@H](Cc2ccc(O)cc2)NC(=O)[C@H](CCC(N)=O)NC(=O)[C@H](CCCNC(N)=O)NC(=O)[C@@H](NC(=O)CCC(C)C)CSSC[C@@H](C(N)=O)NC(=O)[C@H](CC(C)C)NC1=O [UPAR-145, iHex-[Cys-Cit-Gln-Tyr-Phe-Pro-Lys(DOTA)-Ile-Leu-Cys]-NH2] ({Pentanoyl(4-Me)}-C[Cit]QYFPK(DOTA)ILC-NH2; disulfide 1-10)	–	≥ 8.00	< 1.58
CCCCOC(=O)N[C@H]1CSSC[C@@H](C(N)=O)NC(=O)[C@H](CCC)NC(=O)[C@H]([C@@H](C)CC)NC(=O)[C@@H]2C[C@@H](O)CN2C(=O)[C@@H]2C[C@H](F)CN2C(=O)[C@H](Cc2ccc(C#N)cc2)NC(=O)[C@H](Cc2ccc(O)cc2)NC(=O)[C@H](CCCCNC(=O)CN2CCN(CC(=O)O)CCN(CC(=O)O)CCN(CC(=O)O)CC2)NC(=O)[C@H]([C@@H](C)O)NC1=O [UPAR-378, Butoc-[Cys-Thr-Lys(DOTA)-Tyr-Pnf-4Cfp-Hyp-Ile-Nva-Cys]-NH2] (Butoxycarbonyl-CTK(DOTA)Y[Phe(4-CN)][Pro(cis-4-F)][Hyp]I[Nva]C-NH2; disulfide 1-10)	< 1.58	≥ 8.00	–
CCCCC(=O)N[C@@H]1C(=O)N[C@@H](CCCNC(N)=O)C(=O)N[C@@H](CCC(N)=O)C(=O)N[C@@H](Cc2ccc(O)cc2)C(=O)N[C@@H](Cc2ccccc2)C(=O)N2CCC[C@H]2C(=O)N2C[C@H](O)C[C@H]2C(=O)N[C@@H]([C@@H](C)CC)C(=O)N[C@@H](CCC)C(=O)N[C@H](C(N)=O)CSSC1(C)C [UPAR-397, Pent-[Pen-Cit-Gln-Tyr-Phe-Pro-Hyp-Ile-Nva-Cys]-NH2] (Pentanoyl-[Pen][Cit]QYFP[Hyp]I[Nva]C-NH2; disulfide 1-10)	< 1.58	≥ 8.00	–
CC[C@H](C)[C@@H]1NC(=O)[C@@H]2C[C@@H](O)CN2C(=O)[C@@H]2CCCN2C(=O)[C@H](Cc2ccccc2)NC(=O)[C@H](Cc2ccc(O)cc2)NC(=O)[C@H](CCC(N)=O)NC(=O)[C@H](CCCCNC(=N)N)NC(=O)[C@@H](NC(=O)CCC(C)C)CSSC[C@@H](C(N)=O)NC(=O)[C@H](CC(C)C)NC1=O [UPAR-167, iHex-[Cys-Har-Gln-Tyr-Phe-Pro-Hyp-Ile-Leu-Cys]-NH2] ({Pentanoyl(4-Me)}-C[hArg]QYFP[Hyp]ILC-NH2; disulfide 1-10)	–	≥ 8.00	< 1.58
